PubChem BioAssay AID2060898 (Molecular Pharmacology Branch, DTP, NCI, 2025)

Tested on: 616215-338-R-J1-PDC complex spheroid viability
Test: Anticancer human tumor 616215-338-R-J1-PDC patient-derived colon adenocarcinoma cell line growth inhibition [RAS]
Conditions: for IC50: curve of first compound; for viability, T/C: stronger effect = lower value
Summary of the method: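 Multi-cell-type spheroids: tumor cells plus HUVEC endothelial cells and mesenchymal stem cells. RAS-pathway inhibitors were combined with targeted agents, each dosed in half-log steps down from clinical Cmax, or from 10 microM when Cmax was unknown.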

[1] = second compound 0.000949 µM, first compound 0.0316 µM
[2] = second compound 0.000949 µM, first compound 0.1 µM
[3] = second compound 0.000949 µM, first compound 0.316 µM
[4] = second compound 0.000949 µM, first compound 1 µM
[5] = second compound 0.003 µM, first compound 0.0316 µM
[6] = second compound 0.003 µM, first compound 0.1 µM
[7] = second compound 0.003 µM, first compound 0.316 µM
[8] = second compound 0.003 µM, first compound 1 µM
[9] = second compound 0.00949 µM, first compound 0.0316 µM
[10] = second compound 0.00949 µM, first compound 0.1 µM
[11] = second compound 0.00949 µM, first compound 0.316 µM
[12] = second compound 0.00949 µM, first compound 1 µM
[13] = second compound 0.03 µM, first compound 0.0316 µM
[14] = second compound 0.03 µM, first compound 0.1 µM
[15] = second compound 0.03 µM, first compound 0.316 µM
[16] = second compound 0.03 µM, first compound 1 µM
[17] = second compound 0.0949 µM, first compound 0.0316 µM
[18] = second compound 0.0949 µM, first compound 0.1 µM
[19] = second compound 0.0949 µM, first compound 0.316 µM
[20] = second compound 0.0949 µM, first compound 1 µM
[21] = second compound 0.3 µM, first compound 0.0316 µM
[22] = second compound 0.3 µM, first compound 0.1 µM
[23] = second compound 0.3 µM, first compound 0.316 µM
[24] = second compound 0.3 µM, first compound 1 µM
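Also: spheroids exposed to agents for seven days before viability readout.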
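For viability, T/C in this document: 100% = DMSO vehicle control viability.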

`CCC(CC)c1cc(NC2CCC(N)C2)n2nccc2n1` (centres undefined) + CCn1c(-c2cccnc2C(C)OC)c2c3cc(ccc31)N1CCOC(CC(NC(=O)C(C(C)C)N(C)C(=O)C3(F)CCN(C(=O)C#CC(C)(C)N(C)C)CC3)C(=O)N3CCCC(N3)C(=O)OCC(C)(C)C2)C1 showed an IC50 (second compound 0.000949 µM) of 1820 nM, an IC50 (second compound 0.003 µM) of 1760 nM and an IC50 (second compound 0.00949 µM) of 1770 nM. For the same compound, the IC50 (second compound 0.03 µM) was 1770 nM, the IC50 (second compound 0.0949 µM) was 1810 nM and the IC50 (second compound 0.3 µM) was 1570 nM. The viability, T/C [1] was 107%, the viability, T/C [2] was 89.4% and the viability, T/C [3] was 109%. It also gave a viability, T/C [4] of 107%, a viability, T/C (second compound 0.000949 µM, first compound 3.16 µM) of 0.55% and a viability, T/C (second compound 0.000949 µM, first compound 10 µM) of 0.29%. For the same compound, the viability, T/C [5] was 101%, the viability, T/C [6] was 94.6% and the viability, T/C [7] was 89.1%. The viability, T/C [8] was 106%, the viability, T/C (second compound 0.003 µM, first compound 3.16 µM) was 0.5% and the viability, T/C (second compound 0.003 µM, first compound 10 µM) was 0.26%. It also gave a viability, T/C [9] of 92.2%, a viability, T/C [10] of 92.8% and a viability, T/C [11] of 101%. It also gave a viability, T/C [12] of 111%, a viability, T/C (second compound 0.00949 µM, first compound 3.16 µM) of 0.46% and a viability, T/C (second compound 0.00949 µM, first compound 10 µM) of 0.26%. For the same compound, the viability, T/C [13] was 101%, the viability, T/C [14] was 93.3% and the viability, T/C [15] was 91.2%. For the same compound, the viability, T/C [16] was 109%, the viability, T/C (second compound 0.03 µM, first compound 3.16 µM) was 0.45% and the viability, T/C (second compound 0.03 µM, first compound 10 µM) was 0.22%. It also gave a viability, T/C [17] of 103%, a viability, T/C [18] of 110% and a viability, T/C [19] of 106%. It also gave a viability, T/C [20] of 102%, a viability, T/C (second compound 0.0949 µM, first compound 3.16 µM) of 0.44% and a viability, T/C (second compound 0.0949 µM, first compound 10 µM) of 0.27%. For the same compound, the viability, T/C [21] was 114%, the viability, T/C [22] was 112% and the viability, T/C [23] was 116%. The viability, T/C [24] was 82.1%, the viability, T/C (second compound 0.3 µM, first compound 3.16 µM) was 0.46% and the viability, T/C (second compound 0.3 µM, first compound 10 µM) was 0.29%.
Work on `CCN1CCN(Cc2ccc(Nc3ncc(F)c(-c4cc(F)c5nc(C)n(C(C)C)c5c4)n3)nc2)CC1` + CCn1c(-c2cccnc2C(C)OC)c2c3cc(ccc31)N1CCOC(CC(NC(=O)C(C(C)C)N(C)C(=O)C3(F)CCN(C(=O)C#CC(C)(C)N(C)C)CC3)C(=O)N3CCCC(N3)C(=O)OCC(C)(C)C2)C1 yielded an IC50 (second compound 0.000949 µM) of over 1000 nM, an IC50 (second compound 0.003 µM) of over 1000 nM and an IC50 (second compound 0.00949 µM) of over 1000 nM. The IC50 (second compound 0.03 µM) was over 1000 nM, the IC50 (second compound 0.0949 µM) was over 1000 nM and the IC50 (second compound 0.3 µM) was 930 nM. For the same compound, the viability, T/C (second compound 0.000949 µM, first compound 0.00316 µM) was 104%, the viability, T/C (second compound 0.000949 µM, first compound 0.01 µM) was 103% and the viability, T/C [1] was 104%. It also gave a viability, T/C [2] of 122%, a viability, T/C [3] of 144% and a viability, T/C [4] of 66.5%. It also gave a viability, T/C (second compound 0.003 µM, first compound 0.00316 µM) of 102%, a viability, T/C (second compound 0.003 µM, first compound 0.01 µM) of 103% and a viability, T/C [5] of 105%. It also gave a viability, T/C [6] of 121%, a viability, T/C [7] of 141% and a viability, T/C [8] of 59.2%. For the same compound, the viability, T/C (second compound 0.00949 µM, first compound 0.00316 µM) was 102%, the viability, T/C (second compound 0.00949 µM, first compound 0.01 µM) was 104% and the viability, T/C [9] was 108%. For the same compound, the viability, T/C [10] was 128%, the viability, T/C [11] was 134% and the viability, T/C [12] was 56.8%. It also gave a viability, T/C (second compound 0.03 µM, first compound 0.00316 µM) of 110%, a viability, T/C (second compound 0.03 µM, first compound 0.01 µM) of 105% and a viability, T/C [13] of 118%. It also gave a viability, T/C [14] of 122%, a viability, T/C [15] of 143% and a viability, T/C [16] of 67.1%. For the same compound, the viability, T/C (second compound 0.0949 µM, first compound 0.00316 µM) was 109%, the viability, T/C (second compound 0.0949 µM, first compound 0.01 µM) was 113% and the viability, T/C [17] was 116%. For the same compound, the viability, T/C [18] was 121%, the viability, T/C [19] was 129% and the viability, T/C [20] was 50%. For the same compound, the viability, T/C (second compound 0.3 µM, first compound 0.00316 µM) was 117%, the viability, T/C (second compound 0.3 µM, first compound 0.01 µM) was 104% and the viability, T/C [21] was 113%. For the same compound, the viability, T/C [22] was 116%, the viability, T/C [23] was 108% and the viability, T/C [24] was 46%.
